ChEMBL document CHEMBL1150229, “Serrulatane diterpenes with antimycobacterial activity isolated from the West Indian sea whip Pseudopterogorgia elisabethae” (2001)
The source made the active and inactive calls. The calls are words filed in the database; no cut-off is given here.

What was measured:
[1] = test system: Mycobacterium tuberculosis; assay: Antitubercular activity against Mycobacterium tuberculosis H37Rv at 12.5 ug/ml; type: functional
NCI60 = assay: Cytotoxicity against human NCI60 cells; type: functional, cell-based
[2] = test system: Mycobacterium tuberculosis; assay: Antitubercular activity against Mycobacterium tuberculosis H37Rv at 6.25 ug/ml; type: functional

SMILES	Activity [1]	Activity (NCI60)	Activity [2]
CC(C)=CCC[C@H](C)[C@H]1CC[C@H](C)c2ccc(C)cc21 [EROGORGIAENE]	96%	–	–
CC(C)=CCC[C@H](C)[C@H]1CC[C@H](C)c2cc(O)c(C)cc21	–	inactive	77%
CC(C)=C[C@@H]1C[C@H](C)[C@H]2CC[C@H](C)c3c2c1c(C)c1ncoc31 [PSEUDOPTEROXAZOLE]	97%	–	–
CC(C)=CCC[C@H](C)[C@H]1CC[C@H](C)c2c1cc(C)c1ncoc21	66%	–	–
